Measured values as given in article PMC10349806 (Nature Communications, 2023).
Values joined by “and” are separate entries in the source; they are usually repeats but may differ in a detail not shown here. Equal entries are not always repeated.

Experiments:
PfCRT variant E18A = assay: CQ uptake assay, oocytes expressing E18A; type: cell-based, Plasmodium falciparum
Experimental: (§1) Site-directed mutagenesis of PfCRT^Dd2 was performed as described using the megaprimer method with overlap extension[21],[54]. The primer pairs used are listed in Supplementary Table 6. Please note that a codon-optimized and oocyte-adapted version of PfCRT^Dd2 was used[22] (Supplementary Fig. 16). The resulting DNA fragment was cloned into the SP64T expression vector and verified by sequencing.
(§2) Oocytes were obtained as described previously. Briefly, adult (>2 years old) female X. laevis frogs (NASCO) were anesthetized in a cooled solution of ethyl 3-amino benzoate methanesulfonate (0.1%, w/v), followed by a surgical removal of parts of the ovary. The ovary lobes were carefully dissected and small pieces of oocytes were incubated in Ca^2+-free ND96 buffer (96 mM NaCl, 2 mM KCl, 1 mM MgCl2 buffered with 5 mM HEPES/NaOH, pH 7.5) supplemented with collagenase D (0.1%, w/v; Roche), BSA (0.5%, w/v), and 9 mm Na2HPO4 at 18 °C for 14-16 h while gentle shaking. After incubation, the oocytes were carefully washed several times with ND96 buffer (96 mM NaCl, 2 mM KCl, 1.8 mM CaCl2, 1 mM MgCl2 buffered with 5 mM HEPES/NaOH, pH 7.5) supplemented with 100 mg l^−1 gentamycin). Defolliculated and healthy-looking stage V-VI oocytes were manually selected for RNA microinjection. The RNA was generated as following: The codon-optimized sequences of PfCRT variants were cloned into the pSP64T expression vector. After vector linearization using the restriction endonucleases BamHI or SalI (New England Biolabs), transcription was performed using the in vitro SP6 mMessage mMachine Kit (Ambion)[34]. The obtained RNA was kept at −80 °C and diluted with nuclease-free water to a concentration of 0.6 μg μl^−1. Precision-bore glass capillary tubes (3.5-inch glass capillaries; Drummond Scientific Co.) were pulled on a vertical puller (P-87 Flaming/Brown micropipette puller, Sutter Instrument Co.), graduated, and placed on a microinjector (Nanoject II Auto-Nanoliter Injector, Drummond Scientific Co.). 50 nl of nuclease-free water alone (control oocytes) or 50 nl of 0.6 μg μl^−1 RNA were injected under stereomicroscopic control. Injected oocytes were incubated for 46–72 h at 18 °C with twice-daily buffer changes before usage in experiments.
Drug uptake assays were performed as described previously[21],[22],[24],[34]. […] The direction of radio-labeled drug transport is here from the mostly acidic extracellular solution (pH 4.5 or 6.0, as indicated) into the oocyte cytosol (pH ∼ 7.2), which corresponds to the efflux of drug from the acidic digestive vacuole (pH 5.2) into the parasite cytoplasm (pH 7.2). The topology of PfCRT in the oolemma is such that both the N- and C-terminus face the extracellular milieu[3],[22]. In the parasite, the N- and C-terminus face the lumen of the digestive vacuole. CQ uptake kinetics were performed by incubating oocytes in ND96 buffer adjusted to a pH of 4.5, 5.0, 5.5, or 6.0 and supplemented with 50 nM [^3H]CQ and one of 7 different CQ concentrations (10 µM, 50 µM, 100 µM, 200 µM, 300 µM, 400 µM, 500 µM CQ). The reaction was stopped at the 60 min time point, which is in the linear uptake range[22],[34] (Supplementary Fig. 17). For determination of the amount of drug uptake for each oocyte, the reaction medium was removed and the oocytes were washed three times with 2 ml of ice-cold ND96 buffer. Each oocyte was individually transferred to a scintillation vial containing 5% sodium dodecyl sulfate (200 μl) for lysis. The radioactivity of each sample was measured using a liquid scintillation analyzer Tri-Carb 4910 TR (PerkinElmer). Oocytes that were injected with water instead of RNA were analyzed in parallel, representing the uptake of a drug by diffusion and/or endogenous permeation pathways. The resulting value represents the “background“ level of drug accumulation in oocytes (in-depth discussion in[22]). […]

PfCRT variant E299A = target: T1, PfCRT variant E299A (Plasmodium falciparum, UniProt Q9N623, A220S/E299A/I356T/K76T/M74I/N326S/N75E/Q271E/R371I); assay: CQ uptake assay, oocytes expressing E299A; type: cell-based
T1 sequence (Q9N623 1-424 M74I/N75E/K76T/A220S/Q271E/E299A/N326S/I356T/R371I): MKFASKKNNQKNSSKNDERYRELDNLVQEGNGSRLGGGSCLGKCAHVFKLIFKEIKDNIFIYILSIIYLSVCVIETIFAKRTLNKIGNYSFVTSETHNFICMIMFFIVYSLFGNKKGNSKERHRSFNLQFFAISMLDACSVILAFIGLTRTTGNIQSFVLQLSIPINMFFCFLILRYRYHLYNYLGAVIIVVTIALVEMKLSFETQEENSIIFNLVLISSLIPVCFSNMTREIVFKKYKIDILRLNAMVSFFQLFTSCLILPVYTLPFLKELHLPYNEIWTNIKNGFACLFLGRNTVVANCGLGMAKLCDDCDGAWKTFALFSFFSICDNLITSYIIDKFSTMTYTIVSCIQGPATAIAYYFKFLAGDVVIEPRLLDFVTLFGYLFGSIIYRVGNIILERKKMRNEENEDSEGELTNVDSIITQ
Experimental: as §1, §2
Drug uptake assays were performed as described previously[21],[22],[24],[34]. […] The direction of radio-labeled drug transport is here from the mostly acidic extracellular solution (pH 4.5 or 6.0, as indicated) into the oocyte cytosol (pH ∼ 7.2), which corresponds to the efflux of drug from the acidic digestive vacuole (pH 5.2) into the parasite cytoplasm (pH 7.2). The topology of PfCRT in the oolemma is such that both the N- and C-terminus face the extracellular milieu[3],[22]. In the parasite, the N- and C-terminus face the lumen of the digestive vacuole. CQ uptake kinetics were performed by incubating oocytes in ND96 buffer adjusted to a pH of 4.5, 5.0, 5.5, or 6.0 and supplemented with 50 nM [^3H]CQ and one of 7 different CQ concentrations (10 µM, 50 µM, 100 µM, 200 µM, 300 µM, 400 µM, 500 µM CQ). The reaction was stopped at the 60 min time point, which is in the linear uptake range[22],[34] (Supplementary Fig. 17). […] The radioactivity of each sample was measured using a liquid scintillation analyzer Tri-Carb 4910 TR (PerkinElmer). Oocytes that were injected with water instead of RNA were analyzed in parallel, representing the uptake of a drug by diffusion and/or endogenous permeation pathways. […]

[1] = E18A, 50 µM CQ, 1 h, mean ± SEM
[2] = pH 4.5, single replicates, Fig 1d left
[3] = pH 6.0, single replicates, Fig 1d left
[4] = E299A, 50 µM CQ, 1 h, mean ± SEM

## CCN(CC)CCCC(C)Nc1ccnc2cc(Cl)ccc12 (centres unmarked) [CQ, chloroquine]
PfCRT variant E18A; [1]
  Activity at pH 4.5: 1.51 ± 0.34 pmol h-1 oocyte-1
  Activity at pH 6.0: 2.60 ± 0.53 pmol h-1 oocyte-1
PfCRT variant E18A; E18A, CQ transport at pH 4.5 / pH 6.0
  R-value: 0.57 ± 0.06
PfCRT variant E18A; [2]
  E18A transport activity pH 4.5: 2.19 pmol oocyte-1 h-1 and 1.60 pmol oocyte-1 h-1 and 0.74 pmol oocyte-1 h-1
PfCRT variant E18A; pH 4.5 vs pH 6.0, Fig 1d left
  E18A R-value: 0.57 and 0.70 and 0.44
PfCRT variant E18A; [3]
  E18A transport activity pH 6.0: 3.85 pmol oocyte-1 h-1 and 2.27 pmol oocyte-1 h-1 and 1.67 pmol oocyte-1 h-1
PfCRT variant E299A; [4]
  Activity at pH 4.5: 1.87 ± 0.19 pmol h-1 oocyte-1
  Activity at pH 6.0: 3.32 ± 0.54 pmol h-1 oocyte-1
PfCRT variant E299A; E299A, CQ transport at pH 4.5 / pH 6.0
  R-value: 0.60 ± 0.12
PfCRT variant E299A; [2]
  E299A transport activity pH 4.5: 2.28 pmol oocyte-1 h-1 and 1.48 pmol oocyte-1 h-1 and 1.84 pmol oocyte-1 h-1
PfCRT variant E299A; [3]
  E299A transport activity pH 6.0: 2.59 pmol oocyte-1 h-1 and 2.74 pmol oocyte-1 h-1 and 4.64 pmol oocyte-1 h-1
